Where only a bound is given, the exact number is not on record here.

These results are taken from patent publication US12459951B2, “Compounds that interact with RAS superfamily proteins for treatment of cancers, inflammatory diseases, rasopathies, and fibrotic disease” (SHY Therapeutics, LLC, priority 2022, dated 2025).

One series has as its system JNK phosphorylation. Kind of series: JNK Activation Assay (western blot), Panc-1. The series is classed as cell-based, human. The conditions noted are these: at 10 μM, Panc-1 pancreatic cancer cell line; starred symbols = activation. How it is done:
Protocol for JNK Activation Assay
This assay is referred to as the “JNK Activation Assay” throughout this application.
Cell lines: Human tumor-derived pancreatic cancer cell line Panc-1 (expressing KRas […] mutant) was purchased from American Type Culture Collection and grown in complete DMEM-High Glucose medium, supplemented with penicillin (100 U/mL), streptomycin (100 μg/mL), and 10% heat-inactivated FBS at 37° C. in a humidified incubator with 5% CO2.
Method 1: Cells were plated at 350000 cells/well density in a 12-well plate, allowed 3 hours to adhere to the plate, then starved in the appropriate medium in the presence of 0.5% FBS overnight. The small molecules to be tested were added to the cells in the final concentration of 10 μM in the presence of 0.3% DMSO for 6 hours incubation at 37° C. For IC50 value determination, serial dilutions of compounds were added to cells under the same conditions. Next, cells were stimulated with 1.5 ng/ml EGF for 15 minutes then cells were lysed with lysis buffer containing 1% Triton X-100, EDTA, and Halt™ Protease & Phosphatase Inhibitor Cocktail (Thermo Scientific). Protein concentration was assessed by BCA protein assay (Thermo Scientific). Phosphorylation level of JNK was determined by western blot.
Method 2: Cells were plated at 350000 cells/well density in a 12-well plate in the presence of 10% FBS. The next day small molecules to be tested were added to the cells in the final concentration of 10 μM in the presence of 0.3% DMSO for 6 hours incubation at 37° C. For IC50 value determination, serial dilutions of compounds were added to cells under the same conditions. Next, cells were lysed with lysis buffer containing 1% Triton X-100, EDTA, and Halt™ Protease & Phosphatase Inhibitor Cocktail (Thermo Scientific). Protein concentration was assessed by BCA protein assay (Thermo Scientific). Phosphorylation level of JNK was determined by western blot.
Western blot protocol: Equal amounts of protein (15-50 μg) were separated by SDS-PAGE and transferred to nitrocellulose membranes (Invitrogen by Thermo Fisher Scientific). The membrane was stained with Ponceau S Stain (Boston BioProducts) to verify uniform protein loading. Membranes were blocked with 10% milk and phosphorylation levels of JNK were assessed by incubating overnight at 4° C. with the antibody Phospho-SAPK/JNK (Thr183/Tyr185), from Cell Signaling Technology. Then the membranes were incubated with HRP-conjugated secondary antibody (Jackson Immunoresearch, West Grove, PA). Bands were incubated in Amersham ECL Prime Western Blotting Detection Reagent (GE Healthcare) and visualized using the ChemiDoc MP imaging system (Bio-Rad).
Regarding `COCCNc1nc(-c2nccn2C)nn2cc(-c3cccc(OC)c3Cl)c(C)c12` [Compound 16, 6-(2-Chloro-3-methoxyphenyl)-N-(2-methoxyethyl)-5-methyl-2-(1-methyl-1H-imidazol-2-yl)pyrrolo[2,1-f][1,2,4]triazin-4-amine], the “% inh of JNK in Panc-1” value is listed as “F* (F* = 31-74% activation)”. Consider `COc1cccc(Nc2nc(-c3ccccn3)nn3cc(-c4ccn(C(C)C)n4)c(C)c23)n1` [Compound 14, 6-(1-Isopropyl-1H-pyrazol-3-yl)-N-(6-methoxypyridin-2-yl)-5-methyl-2-(pyridin-2-yl)pyrrolo[2,1-f][1,2,4]triazin-4-amine], for which the “% inh of JNK in Panc-1” value is reported as “F* (F* = 31-74% activation)”. Take `COC[C@@H]1CC[C@@H]1CNc1nc(-c2ccccn2)nn2cc(-c3ccn(C(C)C)n3)c(C)c12` (racemic) [Compound 11, rac 6-(1-Isopropyl-1H-pyrazol-3-yl)-N-(((1S,2R)-2-(methoxymethyl)cyclobutyl)methyl)-5-methyl-2-(pyridin-2-yl)pyrrolo[2,1-f][1,2,4]triazin-4-amine]: the “% inh of JNK in Panc-1” value is recorded as “G* (G* = 75-99% activation)”.

For `COc1cccc(-c2cn3nc(-c4nccn4C)nc(O)c3c2C)c1Cl` [Compound 15, 6-(2-Chloro-3-methoxyphenyl)-5-methyl-2-(1-methyl-1H-imidazol-2-yl)pyrrolo[2,1-f][1,2,4]triazin-4-ol], the “% inh of JNK in Panc-1” value is “F* (F* = 31-74% activation)”. `COC1CCCN(c2nc(-c3ccccn3)nn3cc(-c4ccn(C(C)C)n4)c(C)c23)C1` (racemic) [Compound 12, rac 6-(1-Isopropyl-1H-pyrazol-3-yl)-4-(3-methoxypiperidin-1-yl)-5-methyl-2-(pyridin-2-yl)pyrrolo[2,1-f][1,2,4]triazine]: the “% inh of JNK in Panc-1” value was “E* (E* = 1-30% activation)”. Take `COCC1CCN(c2nc(-c3ccccn3)nn3cc(-c4ccn(C(C)C)n4)c(C)c23)C1` (racemic) [Compound 10, rac 6-(1-Isopropyl-1H-pyrazol-3-yl)-4-(3-(methoxymethyl)pyrrolidin-1-yl)-5-methyl-2-(pyridin-2-yl)pyrrolo[2,1-f][1,2,4]triazine]: the “% inh of JNK in Panc-1” value is given as “E* (E* = 1-30% activation)”. `COc1cc(Nc2nc(-c3ccccn3)nn3cc(-c4ccn(C(C)C)n4)c(C)c23)ncn1` [Compound 13, 6-(1-Isopropyl-1H-pyrazol-3-yl)-N-(6-methoxypyrimidin-4-yl)-5-methyl-2-(pyridin-2-yl)pyrrolo[2,1-f][1,2,4]triazin-4-amine]: the “% inh of JNK in Panc-1” value is reported as “H* (H* ≥ 100% activation)”.

System in the next series: not listed separately
Kind of series: Kinetic Solubility Assay in pH 7.4 Buffer + 2% DMSO. The series is classed as physicochemical. The conditions noted are these: phosphate-buffered saline pH 7.4 with 2% DMSO, aqueous buffer, kinetic from dmso stock, 25° C., two hours. Put shortly:
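Compound from 20 mM DMSO stock diluted to nominal 400 μM in PBS pH 7.4 with 2% DMSO, in duplicate, shaken 2 h at 25° C., then filtered. Filtrate quantified by UV absorbance (230-550 nm) against 10-200 μM calibration curves; effective range ~2-400 μM.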
As for `COc1ccc(Nc2nc(-c3nccn3C)nn3cc(-c4ccn(C)n4)c(C)c23)nc1` [Compound 224, N-(5-Methoxypyridin-2-yl)-5-methyl-2-(1-methyl-1H-imidazol-2-yl)-6-(1-methyl-1H-pyrazol-3-yl)pyrrolo[2,1-f][1,2,4]triazin-4-amine], the solubility at 2 h was below 10 µM. For `Cc1c(-c2ccn(C)n2)cn2nc(-c3nccn3C)nc(Nc3cc4c(cn3)CCO4)c12` [Compound 221, N-(5-Methyl-2-(1-methyl-1H-imidazol-2-yl)-6-(1-methyl-1H-pyrazol-3-yl)pyrrolo[2,1-f][1,2,4]triazin-4-yl)-2,3-dihydrofuro[3,2-c]pyridin-6-amine], the solubility at 2 h is 10 to 30 µM. Regarding `Cc1ccc(Nc2nc(-c3nccn3C)nn3cc(-c4ccn(C)n4)c(C)c23)nc1` [Compound 226, 5-Methyl-2-(1-methyl-1H-imidazol-2-yl)-6-(1-methyl-1H-pyrazol-3-yl)-N-(5-methylpyridin-2-yl)pyrrolo[2,1-f][1,2,4]triazin-4-amine], the solubility at 2 h was below 10 µM. Consider `Cc1c(-c2ccn(C)n2)cn2nc(-c3nccn3C)nc(Nc3ccc(N(C)C)cn3)c12` [Compound 227, N5,N5-Dimethyl-N2-(5-methyl-2-(1-methyl-1H-imidazol-2-yl)-6-(1-methyl-1H-pyrazol-3-yl)pyrrolo[2,1-f][1,2,4]triazin-4-yl)pyridine-2,5-diamine], for which the solubility at 2 h is below 10 µM.

Take `COc1cc(Nc2nc(-c3nccn3C)nn3cc(-c4ccn(C)n4)c(C)c23)ncc1C1CC1` [Compound 238, N-(5-Cyclopropyl-4-methoxypyridin-2-yl)-5-methyl-2-(1-methyl-1H-imidazol-2-yl)-6-(1-methyl-1H-pyrazol-3-yl)pyrrolo[2,1-f][1,2,4]triazin-4-amine]: the solubility at 2 h is below 10 µM.

For `Cc1c(-c2ccn(C)n2)cn2nc(-c3nccn3C)nc(Nc3cc(N4CCOCC4)ccn3)c12` [Compound 222, 5-Methyl-2-(1-methyl-1H-imidazol-2-yl)-6-(1-methyl-1H-pyrazol-3-yl)-N-(4-morpholinopyridin-2-yl)pyrrolo[2,1-f][1,2,4]triazin-4-amine], the solubility at 2 h is 10 to 30 µM. As to `COc1cc(Nc2nc(-c3nccn3C)nn3cc(-c4ccn(C)n4)c(C)c23)ncc1C` [Compound 235, N-(4-Methoxy-5-methylpyridin-2-yl)-5-methyl-2-(1-methyl-1H-imidazol-2-yl)-6-(1-methyl-1H-pyrazol-3-yl)pyrrolo[2,1-f][1,2,4]triazin-4-amine], the solubility at 2 h is below 10 µM.
